Assay [1] addresses T1, AfPrxC (Aspergillus fumigatus, UniProt B0Y9D7).
T1 construct: gene AFUB_080670
T1 sequence (B0Y9D7 47-267): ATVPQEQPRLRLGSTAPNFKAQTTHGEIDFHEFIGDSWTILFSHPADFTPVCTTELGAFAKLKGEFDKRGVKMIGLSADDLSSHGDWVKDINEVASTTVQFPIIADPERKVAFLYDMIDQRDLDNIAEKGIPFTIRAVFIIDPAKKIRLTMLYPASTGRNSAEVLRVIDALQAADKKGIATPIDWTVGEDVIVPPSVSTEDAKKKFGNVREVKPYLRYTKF
Briefly: PLA2 assay, [3H]DPPC liposomes, TLC and scintillation. Type of assay: biochemical.

Assay [2] has as its target T2, AfPrx1 (Aspergillus fumigatus, UniProt Q4WPA3).
T2 construct: gene AFUA_4G08580; cytosolic 1-Cys Prdx
T2 sequence (Q4WPA3 1-213): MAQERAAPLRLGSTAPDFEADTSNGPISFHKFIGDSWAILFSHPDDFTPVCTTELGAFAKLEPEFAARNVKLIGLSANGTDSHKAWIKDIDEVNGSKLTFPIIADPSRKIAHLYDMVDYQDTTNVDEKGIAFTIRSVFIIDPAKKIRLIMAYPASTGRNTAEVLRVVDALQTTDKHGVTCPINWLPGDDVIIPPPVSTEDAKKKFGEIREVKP
Described as above. In kind it is biochemical.

One may read the inhibition as the drop in the measured response relative to a control, in per cent. A low value points to a response near the control.

For the compound `CCCCCCCCCCCCCCCCOC[C@H](COCC(F)(F)F)OP(=O)(O)OC` [MJ33, 1-hexadecyl-3-trifluoro-ethylglycero-sn-2-phosphomethanol], the inhibition at 200 µM in assay [1] and in assay [2] was ~85% throughout.

The values above are taken from publication PMC6466579, “Non-Mammalian Prdx6 Enzymes (Proteins with 1-Cys Prdx Mechanism) Display PLA2 Activity Similar to the Human Orthologue” (Antioxidants, 2019).
